# According to US8188152B2, “2-aminoalcohols for the treatment of neurodegenerative diseases” (Biocopea Limited, priority 2005, dated 2012):
# System: SJL mouse EAE model of multiple sclerosis
# Test: Experimental Allergic Encephalomyelitis (EAE) in SJL mice, clinical neurological scoring 0-5
# Format: in vivo
# Details: 10 mg/kg orally once a day
# Experimental: Experimental Allergic Encephalomyelitis (EAE) is a central nervous system, autoimmune, demyleinating disease, that mimics many aspects of multiple sclerosis. Acute models of murine EAE are often utilised to evaluate the efficacy of therapeutics.
# Acclimatised SJL mice were sensitised by a subcutaneous injection proteolipid protein (PLP) in Freund's complete adjuvant (CFA) acting as an encephalitogenic inoculum. Innoculum was administered subcutaneously at a concentration of 125 μg PLP/300 μg CFA in a volume of 200 μl. 48 hours later, an intraperitoneal injection of pertussis toxin (PTX) was administered at a dose of 20 μg/kg, to increase blood-brain barrier permeability.
# (+)-Erythro-2-tert-butylamino-1-(3-chlorophenyl)-propan-1-ol hydrochloride and copoxane were administered from the first day of the experiment and once a day until the end. (+)-Erythro-2-tert-butylamino-1-(3-chlorophenyl)-propan-1-ol hydrochloride was administered orally at a dose of 10 mg/kg. Copaxone was administered intraperitoneally at a dose of 25 mg/kg. Throughout the experiment, careful clinical examinations and body weights were taken to observe the well being of the animal. In addition, clinical scoring of the EAE symptoms was taken to the classical 0-5 scale, as follows: • 0 Normal reactions • 1 Tail weakness • 2 Hind leg weakness and paresis • 3 Hind leg paralysis • 4 Quadriplegia • 5 Moribund/death Results
structure (smiles),measurement,setting,value
C[C@H](NC(C)(C)C)[C@H](O)c1cccc(Cl)c1.Cl [(+)-erythro-2-tert-butylamino-1-(3-chlorophenyl)-propan-1-ol hydrochloride],improvement in symptoms / disease resolution,compared to the vehicle,more rapid improvement in symptoms
same,maximal neurologic score,"versus vehicle, 0-5 scale",no improvement
